In patent EP0061745A1, “Tetrahydroisoquinoline compounds, processes for preparation thereof and pharmaceutical composition containing them” (Tanabe Seiyaku Co., Ltd., priority 1981, dated 1982):

Legend:
[1] = tested on: production of PG 12 in vascular tissues; test: Effect on production of PG I2 in vascular tissues (platelet lysate or aorta microsome); type: biochemical; conditions: pig's blood platelet lysate or microsome obtained from pig's aorta
[2] = tested on: spontaneously hypertensive rats (SHR); test: Blood-pressure lowering effect after oral administration to SHR; type: in vivo; conditions: administered orally, dose of 50 mg/kg
SHR = test: Hypotensive activity after repeated administration (tolerance); type: in vivo, rats; conditions: administered to SHR for 15 consecutive days

Structure (SMILES): CCCCCCCCCC[C@H](CN(CC)C(=O)N1Cc2ccccc2C[C@H]1C(=O)O)C(=O)O [(3S)-2-[N-((2R)-2-carboxy-n-dodecyl)-N-ethylcarbamoyl]-1,2,3,4-tetrahydroisoquinoline-3-carboxylic acid]
- increase in the formation of PG I2 as compared with a control group [1]: 62%

Structure (SMILES): CCOC(=O)[C@H](CCc1ccccc1)CN(CC)C(=O)N1Cc2ccccc2C[C@H]1C(=O)O [(3S)-2-[N-((2R)-2-ethoxycarbonyl-4-phenyl-n-butyl)-N-ethylcarbamoyl]-1,2,3,4-tetrahydroisoquinoline-3-carboxylic acid]
- decrease in the blood pressure [2]: about 35 mmHg
- duration of blood-pressure lowering effect [2]: more than 6 hours

Structure (SMILES): CCCCCCCC[C@H](CN(CC)C(=O)N1Cc2ccccc2C[C@H]1C(=O)O)C(=O)OCC [calcium (3S)-2-[N-((2R)-2-ethoxycarbonyl-n-decyl)-N-ethylcarbamoyl] - 1,2,3,4-tetrahydro-isoquinoline-3-carboxylate]
- decrease in the blood pressure [2]: about 35 mmHg
- duration of blood-pressure lowering effect [2]: more than 6 hours
- potency of hypotensive activity during repeated administration (SHR): almost the same potency of its hypotensive activity
